From patent publication US11464770B2, “Anticancer pharmaceutical composition” (NATIONAL CANCER CENTER, priority 2016, dated 2022)
Where two headings read alike, the source gives them in different places.

Tests used:
[1] = system: neuroblastoma cell lines; assay: Cell based assay, cell viability (CellTiter-Glo), neuroblastoma cell lines; conditions: Homo sapiens; SH-SY5Y cell line
Method: (§1) Commercially available bladder cancer, prostate cancer, lung cancer, breast cancer, blood cancer, pancreatic cancer, colorectal cancer, brain cancer, neuroblastoma, melanoma, liver cancer, cervical carcinoma, ovarian cancer, renal cancer, and papilloma cell lines were each treated with trypsin-EDTA and cultured, followed by being seeded in each well of a 96 well plate. After 24 hours of treatment at constant temperature, the respective cells were treated with the candidate compound so that a final concentration became 0 to 2 μM. The treated cells were additionally cultured for 72 hours, and cell viability was measured by using an ATP detection method (CellTiter-Glo® Luminescent Cell Viability Assay, Promega).

[2] = system: liver cancer cell lines; assay: Cell based assay, cell viability (CellTiter-Glo), liver cancer cell lines; conditions: Homo sapiens, SK-HEP1; SK-HEP-1 cell line
Method: as §1

[3] = system: colorectal cancer cell lines (e.g. DLD-1, HCT 116, SW620, HCT-15, HCT-8, RKO); assay: Cell based assay, cell viability (CellTiter-Glo), colorectal cancer cell lines
Method: as §1

[4] = Homo sapiens, DLD-1, 72 hours treatment, read-out: IC50, colorectal cancer cell line DLD-1
[5] = Homo sapiens, HCT 116, 72 hours treatment, read-out: IC50, colorectal cancer cell line HCT 116
[6] = Homo sapiens, HCT-8, 72 hours treatment, read-out: IC50, colorectal cancer cell line HCT-8
[7] = Homo sapiens, HCT-15, 72 hours treatment, read-out: IC50, colorectal cancer cell line HCT-15
[8] = Homo sapiens, HT-29, 72 hours treatment, read-out: IC50, colorectal cancer cell line HT-29
[9] = Homo sapiens, LoVo, 72 hours treatment, read-out: IC50, colorectal cancer cell line LoVo
[10] = Homo sapiens, SW480, 72 hours treatment, read-out: IC50, colorectal cancer cell line SW480
[11] = Homo sapiens, SW-620, SW620, 72 hours treatment, read-out: IC50, colorectal cancer cell line SW620
[12] = RKO, 72 hours treatment, read-out: IC50, colorectal cancer cell line RKO
[13] = Homo sapiens, DLD-1 cells, 72 hours treatment, read-out: IC50, colorectal cancer cell line DLD-1
[14] = Homo sapiens, HCT 116 cells, 72 hours treatment, read-out: IC50, colorectal cancer cell line HCT 116
[15] = Homo sapiens, HCT-8 cells, 72 hours treatment, read-out: IC50, colorectal cancer cell line HCT-8
[16] = Homo sapiens, HCT-15 cells, 72 hours treatment, read-out: IC50, colorectal cancer cell line HCT-15
[17] = Homo sapiens, HT-29 cells, 72 hours treatment, read-out: IC50, colorectal cancer cell line HT-29
[18] = Homo sapiens, LoVo cells, 72 hours treatment, read-out: IC50, colorectal cancer cell line LoVo
[19] = Homo sapiens, RKO cells, 72 hours treatment, read-out: IC50, colorectal cancer cell line RKO
[20] = Homo sapiens, SW480 cells, 72 hours treatment, read-out: IC50, colorectal cancer cell line SW480
[21] = Homo sapiens, SW-620, SW620 cells, 72 hours treatment, read-out: IC50, colorectal cancer cell line SW620

Row | Compound | IC50 [1] [nM] | IC50 [2] [nM] | IC50 [3, 4] [nM] | IC50 [3, 5] [nM] | IC50 [3, 6] [nM] | IC50 [3, 7] [nM] | IC50 [3, 8] [nM] | IC50 [3, 9] [nM] | IC50 [3, 10] [nM] | IC50 [3, 11] [nM] | IC50 [3, 12] [nM] | IC50 [3, 13] [nM] | IC50 [3, 14] [nM] | IC50 [3, 15] [nM] | IC50 [3, 16] [nM] | IC50 [3, 17] [nM] | IC50 [3, 18] [nM] | IC50 [3, 19] [nM] | IC50 [3, 20] [nM] | IC50 [3, 21] [nM]
1 | CC(=O)c1c([S+]([O-])Cc2cccc(I)c2)[nH]c2c(Br)ccc(Cl)c2c1=O (stereo not shown) [Compound 48, 3-acetyl-8-bromo-5-chloro-2-((3-iodobenzyl)sulfinyl)quinolin-4(1H)-one] | > 2000 | > 2000 | 1600 | > 2000 | > 2000 | > 2000 | > 10000 | > 2000 | > 2000 | > 2000 | > 2000 |  |  |  |  |  |  |  |  | 
2 | CC(=O)c1c(SCc2cccc(F)c2)[nH]c2c(Br)ccc(Cl)c2c1=O [Compound 49, 3-acetyl-8-bromo-5-chloro-2-((3-fluorobenzyl)thio)quinolin-4(1H)-one] | > 2000 | > 2000 | > 2000 | > 2000 | > 2000 | > 2000 | > 10000 | > 2000 | > 2000 | > 2000 | > 2000 |  |  |  |  |  |  |  |  | 
3 | CC(=O)c1c(SCc2ccccc2)nc2c(Br)ccc(Cl)c2c1O [Compound 52, 1-(2-(benzylthio)-8-bromo-5-chloro-4-hydroxyquinolin-3-yl)ethan-1-one] | > 2000 | > 2000 | > 2000 | > 2000 | > 2000 | > 2000 | > 10000 | > 2000 | > 2000 | > 2000 | > 2000 |  |  |  |  |  |  |  |  | 
4 | CC(=O)c1c([S+]([O-])Cc2ccccc2)nc2c(Br)ccc(Cl)c2c1O (stereo not shown) [Compound 53, 1-(2-(benzylsulfinyl)-8-bromo-5-chloro-4-hydroxyquinolin-3-yl)ethan-1-one] | > 2000 | > 2000 | > 2000 | > 2000 | > 2000 | > 2000 | > 10000 | > 2000 | > 2000 | > 2000 | > 2000 |  |  |  |  |  |  |  |  | 
5 | CC(=O)c1c(S(=O)(=O)Cc2ccccc2)nc2c(Br)ccc(Cl)c2c1O [Compound 54, 1-(2-(benzylsulfonyl)-8-bromo-5-chloro-4-hydroxyquinolin-3-yl)ethan-1-one] | > 2000 | > 2000 | > 2000 | > 2000 | > 2000 | > 2000 | > 10000 | > 2000 | > 2000 | > 2000 | > 2000 |  |  |  |  |  |  |  |  | 
6 | CC(=O)c1c([S+]([O-])Cc2ccccc2C#N)[nH]c2c(Br)ccc(Cl)c2c1=O (stereo not shown) [Compound 58, 2-(((3-acetyl-8-bromo-5-chloro-4-oxo-1,4-dihydroquinolin-2-yl)sulfinyl)methyl)benzonitrile] | > 2000 | 780 | 770 | 1090 | 1350 | 1100 | > 10000 | 2020 | 1220 | 1160 | 1120 |  |  |  |  |  |  |  |  | 
7 | COCSc1[nH]c2c(Br)ccc(Cl)c2c(=O)c1C(C)=O [Compound 61, 3-acetyl-8-bromo-5-chloro-2-((methoxymethyl)thio)quinolin-4(1H)-one] | > 2000 | > 2000 | > 2000 | > 2000 | > 2000 | > 2000 | > 10000 | > 2000 | > 2000 | > 2000 | > 2000 |  |  |  |  |  |  |  |  | 
8 | CC(=O)c1c(S)[nH]c2c(Br)ccc(Cl)c2c1=O [Compound 62, 3-acetyl-8-bromo-5-chloro-2-mercaptoquinolin-4(1H)-one] | > 2000 | > 2000 | > 2000 | > 2000 | > 2000 | > 2000 | > 10000 | > 2000 | > 2000 | > 2000 | > 2000 |  |  |  |  |  |  |  |  | 

Continued, values first:

Row | IC50 [1] [nM] | IC50 [2] [nM] | IC50 [3, 4] [nM] | IC50 [3, 5] [nM] | IC50 [3, 6] [nM] | IC50 [3, 7] [nM] | IC50 [3, 8] [nM] | IC50 [3, 9] [nM] | IC50 [3, 10] [nM] | IC50 [3, 11] [nM] | IC50 [3, 12] [nM] | IC50 [3, 13] [nM] | IC50 [3, 14] [nM] | IC50 [3, 15] [nM] | IC50 [3, 16] [nM] | IC50 [3, 17] [nM] | IC50 [3, 18] [nM] | IC50 [3, 19] [nM] | IC50 [3, 20] [nM] | IC50 [3, 21] [nM] | Compound
9 | > 2000 | > 2000 | > 2000 | > 2000 | > 2000 | > 2000 | > 10000 | > 2000 | > 2000 | > 2000 | > 2000 |  |  |  |  |  |  |  |  |  | CC(=O)c1c([S+]([O-])Cc2ccc(C(=O)c3ccccc3)cc2)[nH]c2c(Br)ccc(Cl)c2c1=O (stereo not shown) [Compound 63, 3-acetyl-2-((4-benzoylbenzyl)sulfinyl)-8-bromo-5-chloroquinolin-4(1H)-one]
10 | > 2000 | > 2000 | > 2000 | > 2000 | > 2000 | > 2000 | > 10000 | > 2000 | > 2000 | > 2000 | > 2000 |  |  |  |  |  |  |  |  |  | CC(=O)c1c([S+]([O-])CC#N)[nH]c2c(Br)ccc(Cl)c2c1=O (stereo not shown) [Compound 65, 2-((3-acetyl-8-bromo-5-chloro-4-oxo-1,4-dihydroquinolin-2-yl)sulfinyl)acetonitrile]
11 | > 2000 | > 2000 | > 2000 | > 2000 | > 2000 | > 2000 | > 10000 | > 2000 | > 2000 | > 2000 | > 2000 |  |  |  |  |  |  |  |  |  | CC(=O)c1c(SCC#N)[nH]c2c(Br)ccc(Cl)c2c1=O [Compound 66, 2-((3-acetyl-8-bromo-5-chloro-4-oxo-1,4-dihydroquinolin-2-yl)thio)acetonitrile]
12 | > 2000 | > 2000 | > 2000 | > 2000 | > 2000 | > 2000 | > 10000 | > 2000 | > 2000 | > 2000 | > 2000 |  |  |  |  |  |  |  |  |  | CC(=O)c1c(S/C=C\C(=O)O)[nH]c2c(Br)ccc(Cl)c2c1=O [Compound 67, (Z)-3-((3-acetyl-8-bromo-5-chloro-4-oxo-1,4-dihydroquinolin-2-yl)thio)acrylic acid]
13 | > 2000 | 860 | 780 | 1090 | 1300 | 980 | > 2000 | > 2000 | 1750 | 1660 | 1330 |  |  |  |  |  |  |  |  |  | CC(=O)c1c([S+]([O-])Cc2ccc(S(F)(F)(F)(F)F)cc2)[nH]c2c(Br)ccc(Cl)c2c1=O (stereo not shown) [Compound 68, 3-acetyl-8-bromo-5-chloro-2-((4-(pentafluoro-16-sulfanyl)benzyl)sulfinyl)quinolin-4(1H)-one]
14 | > 2000 | 1040 | 920 | 1520 | 1910 | 1420 | > 10000 | > 2000 | > 2000 | 1770 | 1540 |  |  |  |  |  |  |  |  |  | CC(=O)c1c([S+]([O-])Cc2ccc(S(F)(F)(F)(F)F)cc2F)[nH]c2c(Br)ccc(Cl)c2c1=O (stereo not shown) [Compound 69, 3-acetyl-8-bromo-5-chloro-2-((2-fluoro-4-(pentafluoro-16-sulfanyl)benzyl)sulfinyl)quinolin-4(1H)-one]
15 | > 2000 | 1090 | 920 | 1450 | 1700 | 1240 | > 10000 | > 2000 | 1800 | 1680 | 1290 |  |  |  |  |  |  |  |  |  | CC(=O)c1c([S+]([O-])Cc2cccc(S(F)(F)(F)(F)F)c2)[nH]c2c(Br)ccc(Cl)c2c1=O (stereo not shown) [Compound 77, 3-acetyl-8-bromo-5-chloro-2-((3-(pentafluoro--sulfanyl)benzyl)sulfinyl)quinolin-4(1H)-one]
16 | > 2000 | > 2000 | > 2000 | > 2000 | > 2000 | > 2000 | > 10000 | > 2000 | > 2000 | > 2000 | > 2000 |  |  |  |  |  |  |  |  |  | CC(=O)c1c([S+]([O-])Cc2ccc(SC(F)(F)F)cc2)[nH]c2c(Cl)ccc(Cl)c2c1=O (stereo not shown) [Compound 79, 3-acetyl-5,8-dichloro-2-((4-((trifluoromethyl)thio)benzyl)sulfinyl)quinolin-4(1H)-one]
17 | > 2000 | > 2000 | > 2000 | > 2000 | > 2000 | > 2000 | > 10000 | > 2000 | > 2000 | > 2000 | > 2000 |  |  |  |  |  |  |  |  |  | CC(=O)c1c([S+]([O-])Cc2ccc(S(F)(F)(F)(F)F)cc2)[nH]c2c(F)ccc(F)c2c1=O (stereo not shown) [Compound 80, 3-acetyl-5,8-difluoro-2-((4-(pentafluoro--sulfanyl)benzyl)sulfinyl)quinolin-4(1H)-one]
18 | > 2000 | > 2000 | > 2000 | > 2000 | > 2000 | > 2000 | > 10000 | > 2000 | > 2000 | > 2000 | > 2000 |  |  |  |  |  |  |  |  |  | CC(=O)c1c([S+]([O-])Cc2ccc(C(F)(F)F)o2)[nH]c2c(F)ccc(F)c2c1=O (stereo not shown) [Compound 81, 3-acetyl-5,8-difluoro-2-(((5-(trifluoromethyl)furan-2-yl)methyl)sulfinyl)quinolin-4(1H)-one]
19 | 1550 | > 2000 |  |  |  |  |  |  |  |  |  | > 2000 | > 2000 | > 2000 | > 2000 | > 10000 | > 2000 | > 2000 | > 2000 | > 2000 | CC(=O)c1c([S+]([O-])Cc2cc(C)on2)[nH]c2c(F)ccc(F)c2c1=O (stereo not shown) [Compound 82, 3-acetyl-5,8-difluoro-2-(((5-methylisoxazol-3-yl)methyl)sulfinyl)quinolin-4(1H)-one]
20 | > 2000 | > 2000 |  |  |  |  |  |  |  |  |  | > 2000 | > 2000 | > 2000 | > 2000 | > 10000 | > 2000 | > 2000 | > 2000 | > 2000 | CC(C)C(=O)c1c([S+]([O-])Cc2ccc(SC(F)(F)F)cc2)[nH]c2c(F)ccc(F)c2c1=O (stereo not shown) [Compound 85, 5,8-difluoro-3-isobutyryl-2-((4-((trifluoromethyl)thio)benzyl)sulfinyl)quinolin-4(1H)-one]
